We go through 5 molecules from US9688624B2, “DP2 antagonist and uses thereof” (Brickell Biotech, Inc., priority 2010, dated 2017).

A short description of data set [1]: Metabolites of Compound 1 (active metabolites). As for the experimental part: Compound 1 metabolites formed during incubation of Compound 1 with rat, dog, and human liver microsomes, rat and human hepatocytes, as well as those generated in vivo and isolated from rat bile and rat and dog plasma have been investigated. Authentic standards of the majority of the metabolites have been chemically synthesized. The identity of the in vitro and in vivo metabolites were confirmed by comparison with the authentic standard and/or by the fragmentation pattern observed following LC-MS/MS analysis.

In another data set the target is CYP2C19 (Homo sapiens (Human), UniProt P33261). Nature of the data set: Extracellular cytochrome P450 inhibition (microsomes). Particulars: 2C19, mephenytoin 4′-hydroxylation.
Chain of CYP2C19 (P33261 whole entry): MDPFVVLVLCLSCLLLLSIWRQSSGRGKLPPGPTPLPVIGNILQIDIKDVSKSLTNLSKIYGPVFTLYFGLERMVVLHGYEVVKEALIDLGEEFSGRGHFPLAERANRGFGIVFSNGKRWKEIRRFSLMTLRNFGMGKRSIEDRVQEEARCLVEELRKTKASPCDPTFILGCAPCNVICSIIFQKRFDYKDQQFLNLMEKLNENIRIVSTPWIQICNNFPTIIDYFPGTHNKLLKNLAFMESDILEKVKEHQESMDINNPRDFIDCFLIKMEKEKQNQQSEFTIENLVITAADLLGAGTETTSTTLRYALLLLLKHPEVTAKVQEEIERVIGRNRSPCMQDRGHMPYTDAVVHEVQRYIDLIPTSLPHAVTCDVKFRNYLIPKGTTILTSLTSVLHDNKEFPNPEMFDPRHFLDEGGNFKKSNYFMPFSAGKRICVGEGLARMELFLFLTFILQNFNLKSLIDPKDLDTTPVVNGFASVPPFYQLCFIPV

Consider `CC(C)(C)SCc1cc(NC(=O)C(C)(C)C)ccc1Oc1cc(CC(=O)O)ccc1O` [Compound M3, 2-(3-(2-(tert-butylthiomethyl)-4-pivalamidophenoxy)-4-hydroxyphenyl)acetic acid], for which the activity of metabolite entry in data set [1] is given as “active”.

Turning to `COc1ccc(CC(=O)O)cc1Oc1ccc(NC(=O)C(C)(C)C)cc1CS(=O)(=O)C(C)(C)C` [Compound M2, 2-(3-(2-(tert-butylsulfonylmethyl)-4-pivalamidophenoxy)-4-methoxyphenyl)acetic acid], the activity of metabolite entry in data set [1] is “active”.

Take `COc1ccc(CC(=O)O)cc1Oc1ccc(NC(=O)C(C)(C)C)cc1C[S+]([O-])C(C)(C)C` (centres unmarked) [Compound M1, 2-(3-(2-(tert-butylsulfinylmethyl)-4-pivalamidophenoxy)-4-methoxyphenyl)acetic acid]: in data set [1], the activity of metabolite entry is “active”.

As for `CCC1(c2ccccc2)C(=O)NC(=O)N(Cc2ccccc2)C1=O` (single isomer, unassigned; (-)) [(-)-N-3-benzyl-phenobarbital, reference compound], at CYP2C19, it took 8.7 µM to reach half-maximal inhibition (IC50).

For the molecule `CC(C)(C)C(=O)Nc1ccc(Oc2cc(CC(=O)O)ccc2O)c(C[S+]([O-])C(C)(C)C)c1` (centres unmarked) [Compound M5, 2-(3-(2-(tert-butylsulfinylmethyl)-4-pivalamidophenoxy)-4-hydroxyphenyl)acetic acid], the activity of metabolite result in data set [1] is on record as “active”.
